Patent publication US20170037008A1, “PHENYL BENZYL ETHER DERIVATIVE AND PREPARATION METHOD AND APPLICATION THEREOF” (BEIJING ZHIBO BIO-MEDICAL TECHNOLOGY CO., LTD, priority 2013, published 2017)
Read-outs that look alike come from different tables or passages of the source.

What was measured:
Aβ1-42 aggregates = biological target: T1, Aβ1-42 aggregates (Homo sapiens, UniProt P05067); assay: In-vitro competitive binding experiments (Ki determination) with Aβ1-42 aggregates; settings: for affinity with the Aβ1-42 aggregates compared with IMPY and PIB: competitive binding experiments
T1 construct: Preparing receptor Aβ1-42 proteins according to the existing method
T1 sequence (P05067 672-713 limits assumed): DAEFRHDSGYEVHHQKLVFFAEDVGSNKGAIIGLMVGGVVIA
Procedure: Binding reaction occurs between Aβ1-42 aggregate proteins with certain concentration and radioactive ligands [^125I] […] 4, the compounds are separated after balancing, and the inhibition constant (Ki) is calculated by determining radioactivity.
(1) Preparing 4 l of PBS (0.2M) buffer solution with pH=7.4;
(2) Preparing radioligand [^125]
(3) Preparing the compounds to be determined into 10^−3 to 10^−9 mol/L continuously diluted ethanol solution;
(4) Preparing receptor Aβ1-42 proteins according to the existing method and diluting the proteins into 30 nM water solution;
(5) Soaking a glass fiber filter membrane in PBS solution containing 0.1% (volume fraction) polyethyleneimine for 0.5 h;
(6) Respectively adding 100 μl of solution of compounds with different concentration and to be determined, 100 μl of [^125I]
(7) Oscillating and incubating for 2 h in 37° C. constant-temperature water bath;
(8) Collecting reaction liquid by using a multi-head cell collector, and washing the reaction liquid for three times by using PBS, 3 ml per time;
(9) Measuring and counting by using a γ counter; and […]

[1] = Biological distribution in bodies of normal mice; type: in vivo, mice (ICR); settings: caudal vein injection
Description: Through in-vivo distribution experiments, pharmacokinetic features, especially initial bran intake and brain removal situations of ^18F or ^125I labeled compounds in the bodies of mice are studied. […] Data are expressed in radioactive percentage dosage per organ (% ID/organ) and radioactive percentage dosage per gram of organ (% ID/g).

[2] = competition against radioligand [^125I] IMPY, Aβ1-42 aggregates, 37° C., 2 h

COc1ccccc1OCc1ccc(I)cc1 [Compound 6, 1-(4-iodobenzyloxy)-2-methoxybenzene]
Ki (Aβ1-42 aggregates): 6110 ± 458 nM

CNc1ccc(OCc2ccc(I)cc2)cc1 [Compound 19, 4-(4-iodobenzyloxy)-N-methylaniline]
Ki (Aβ1-42 aggregates): 57 ± 5.1 nM

COc1ccc(COc2ccc(OCCF)cc2)cc1 [Compound 53a, 1-(2-fluoroethoxy)-4-(4 methoxybenzyloxy) benzene]
Ki (Aβ1-42 aggregates): 465 ± 18.8 nM

Fc1ccc(OCc2ccc(I)cc2)cc1 [Compound 10, 1-fluoro-4-(4-iodobenzyloxy) benzene]
Ki (Aβ1-42 aggregates): 127 ± 18.2 nM

Nc1ccc(OCc2ccc(I)cc2)cc1 [Compound 16, 4-(4-iodobenzyloxy) aniline]
Ki (Aβ1-42 aggregates): 484 ± 53.2 nM

Oc1cccc(OCc2ccc(I)cc2)c1 [Compound 8, 3-(4-iodobenzyloxy) phenol]
Ki (Aβ1-42 aggregates): 456 ± 135 nM

COc1ccc(COc2ccc(I)cc2)cc1 [Compound 24, 1-iodo-4-(4-methoxybenzyloxy) benzene]
Ki (Aβ1-42 aggregates): 58.5 ± 3.5 nM

Oc1ccccc1OCc1ccc(I)cc1 [Compound 9, 2-(4-iodobenzyloxy) phenol]
Ki (Aβ1-42 aggregates): 3350 ± 611 nM

Clc1ccc(OCc2ccc(I)cc2)cc1 [Compound 11, 1-chloro-4-(4-iodobenzyloxy) benzene]
Ki (Aβ1-42 aggregates): 22.3 ± 2.6 nM
affinity with the Aβ1-42 aggregates compared with IMPY and PIB (Aβ1-42 aggregates): higher than that of the known compounds IMPY and PIB

O=c1ccc(I)cn1Cc1ccc(I)cc1 [Compound 58]
Ki (Aβ1-42 aggregates; [2]): 1060 nM

CNc1ccc(OCc2ccc(OCCF)cc2)cc1 [Compound 46, 4-(4-(2-fluoroethoxy)benzyloxy)-N-methylaniline]
Ki (Aβ1-42 aggregates): 460 ± 82 nM

CN(C)c1ccc(CNc2ccc(I)cc2)cc1 [Compound 67, 4-(((4-iodophenyl)amino)methyl)-N,N-dimethylaniline]
Ki (Aβ1-42 aggregates): 124 ± 14.3 nM

CC(C)(C)c1ccc(OCc2ccc(I)cc2)cc1 [Compound 15, 1-tert-butyl-4-(4-iodobenzyloxy) benzene]
Ki (Aβ1-42 aggregates): 139 ± 20.9 nM

CNc1cccc(OCc2ccc(I)cc2)c1 [Compound 20, 3-(4-iodobenzyloxy)-N-methylaniline]
Ki (Aβ1-42 aggregates): 702 ± 92.4 nM

Oc1ccc(OCc2ccc(I)cc2)cc1 [Compound 7, 4-(4-iodobenzyloxy) phenol]
Ki (Aβ1-42 aggregates): 134 ± 28.1 nM

COc1ccc(SCc2ccc(I)cc2)cc1 [Compound 25, (4-iodobenzyl) (4-methoxyphenyl) sulfane]
Ki (Aβ1-42 aggregates): 627 ± 129 nM

FCCOc1ccc(COc2ccc(I)cc2)cc1 [Compound 35a, 1-(2-fluoroethoxy)-4-((4-iodophenoxy)methyl) benzene]
Ki (Aβ1-42 aggregates): 23 ± 3.3 nM
affinity with the Aβ1-42 aggregates compared with IMPY and PIB (Aβ1-42 aggregates): higher than that of the known compounds IMPY and PIB

COc1ccc(OCc2ccc(OCCF)cc2)cc1 [Compound 44a, 1-(2-fluoroethoxy)-4-((4-methoxyphenoxy)methyl) benzene]
Ki (Aβ1-42 aggregates): 167 ± 34.5 nM

Nc1cccc(OCc2ccc(I)cc2)c1 [Compound 17, 3-(4-iodobenzyloxy) aniline]
Ki (Aβ1-42 aggregates): 1810 ± 189 nM

CN(C)c1ccc(OCc2ccc(OCCF)cc2)cc1 [Compound 47, 4-(4-(2-fluoroethoxy)benzyloxy)-N,N-dimethylaniline]
Ki (Aβ1-42 aggregates): 23 ± 5.3 nM
affinity with the Aβ1-42 aggregates compared with IMPY and PIB (Aβ1-42 aggregates): higher than that of the known compounds IMPY and PIB

Nc1ccccc1OCc1ccc(I)cc1 [Compound 18, 2-(4-iodobenzyloxy) aniline]
Ki (Aβ1-42 aggregates): 1220 ± 58 nM

FCCOc1ccc(COc2cccnc2I)cc1 [Compound 65]
Ki (Aβ1-42 aggregates; [2]): 2080 ± 458 nM

CNc1ccccc1OCc1ccc(I)cc1 [Compound 21, 2-(4-iodobenzyloxy)-N-methylaniline]
Ki (Aβ1-42 aggregates): > 20000 nM

CN(C)c1ccc(-c2cn3cc([125I])ccc3n2)cc1 [[^125I]IMPY, reference compound]
Blood ([1]; 2 min): 3.85 ± 0.53 % ID/g
Brain ([1]; 2 min): 5.05 ± 0.38 % ID/g
Thyroid ([1]; 2 min): 0.12 ± 0.05 % ID/organ
Blood ([1]; 10 min): 2.81 ± 0.33 % ID/g
Brain ([1]; 10 min): 1.80 ± 0.12 % ID/g
Thyroid ([1]; 10 min): 0.09 ± 0.03 % ID/organ
Blood ([1]; 30 min): 1.50 ± 0.20 % ID/g
Brain ([1]; 30 min): 0.67 ± 0.15 % ID/g
Thyroid ([1]; 30 min): 0.22 ± 0.08 % ID/organ
Blood ([1]; 60 min): 1.03 ± 0.10 % ID/g
Brain ([1]; 60 min): 0.45 ± 0.07 % ID/g
Thyroid ([1]; 60 min): 0.30 ± 0.09 % ID/organ
